# Laboratory results reported in patent publication US20150299670A1, “COMBINING GENETIC TRAITS FOR FURFURAL TOLERANCE” (priority 2012, published 2015).
# Experiments:
# LY180 = experiment: Batch ethanol fermentation in AM1 medium with furfural; assay type: cell-based, Escherichia coli; conditions: 15 mM furfural, AM1 mineral salts medium, 100 g/L xylose
# Method: (§1) FIGS. 4A-C. Comparison of batch fermentations for the parent LY180 and the plasmid-free, furfural-resistant strain XW129. […] For A (cell mass) and B (ethanol and furfural), fermentations were conducted in mineral salt medium AM1 (100 g/L xylose and 15 mM furfural). Control fermentations without furfural were also included. Fermentations (C) were also conducted using hemicellulose hydrolysate containing 36 g/L total sugar, supplemented with AM1 nutrients and 0.5 mM sodium metabisulfite. Data represent averages of at least 2 experiments with standard deviations.
# (§2) Ethanol fermentations with xylose were carried out as previously described (17, 22), with and without furfural. For succinate production from xylose, seed pre-cultures of strains were grown in sealed culture tubes containing AM1 medium (20 g/L xylose, 50 mM KHCO3 and 100 mM MOPS). After incubation for 16 h, pre-inocula were diluted into 500-ml fermentation vessels containing 300 ml AM1 media (100 g/L xylose, 1 mM betaine and 100 mM KHCO3) at an initial density of 6.6 mg dry cell weight. After 24 h growth, these seed cultures were used to provide starting inocula for batch fermentations (AM1 medium, 100 g/L xylose and 100 mM KHCO3). Fermentations were maintained at pH 7.0 by automatic addition of base containing additional CO2 (2.4 M potassium carbonate in 1.2 M potassium hydroxide) as previously described (27). Quantitative analyses of sugars, ethanol, furfural, and succinate were as previously described (17, 27, 38).
# XW129 = experiment: as above; assay type: cell-based, Escherichia coli; conditions: 15 mM furfural, AM1 mineral salts medium, 100 g/L xylose
# Method: as §1, §2
# XW055 = experiment: Furfural tolerance in tube cultures; assay type: cell-based; conditions: Escherichia coli, strain XW055, AM1 medium, 50 g/L xylose, 48 h, read-out: minimal inhibitory concentration of furfural
# Method: (§3) Furfural toxicity was measured in tube cultures (13 mm by 100 mm) as previously described for ethanol strains (17, 22). For succinate strains, tubes contained 4 ml of AM1 medium with 50 g/L xylose, 50 mM KHCO3, and 100 mM MOPS as a buffer. Tubes were inoculated with starting cell density of 44 mg/L. Cell mass was measured at 550 nm after incubation for 48 h (37° C.).
# XW120 = experiment: Furfural tolerance in tube cultures; assay type: cell-based; conditions: Escherichia coli, 48 h, read-out: minimal inhibitory concentration of furfural
# Method: as §3
# XW136 = experiment: Furfural tolerance in tube cultures; assay type: cell-based, Escherichia coli; conditions: strain XW136 (XW120 with adhE::fucO), AM1 medium, 50 g/L xylose, 48 h
# Method: as §3
smiles,measurement,setting,value
O=Cc1ccco1 [furfural],growth and fermentation,LY180,completely blocked
same,delay of growth,XW129,24 h
same,extension of time required to complete fermentation,XW129,6 h
same,MIC,XW055,7.5 mM
same,MIC,XW120,15 mM
same,furfural tolerance,XW136,17.5 mM
